# Reference: ChEMBL document CHEMBL4130434, “Antineoplastic Agents. 604. The Path of Quinstatin Derivatives to Antibody Drug Conjugates” (2017)
# *1 amine or outer side, *2 acyl side, *3 side chain or, on linkers, in order; H or OH if unused. Where a SMILES comes first, the peptide text is derived from it. [ ]: non-standard residue; d: D form. The star is where a group is joined. Dolaproine = CO[C@@H]([C@@H]1CCCN1)[C@@H](C)C(=O)O; Hexanoyl(6-maleimido) = O=C1C=CC(=O)N1CCCCCC(=O)*; Dil = CC[C@H](C)[C@H](NC)[C@@H](CC(=O)O)OC; PABC = O=C(OCc1ccc(N[*:1])cc1)[*:2]; Cit = NC(=O)NCCC[C@H](N)C(=O)O; NMeV = CN[C@H](C(=O)O)C(C)C; X1 = c1cnc2c(CCN*)cccc2c1; X2 = c1cc(CCN*)c2cccnc2c1; X3 = c1ccc2c(CCN*)ccnc2c1; X4 = c1ccc2nc(CCN*)ccc2c1
# Tests used:
# Type in all cases: functional
# KM-20L2 = experiment: Growth inhibition of human KM20L2 cells after 48 hrs by SRB assay; conditions: KM-20L2, 48 h
# MCF7 = experiment: Growth inhibition of human MCF7 cells after 48 hrs by SRB assay; conditions: MCF7, 48 h
# SF-268 = experiment: Growth inhibition of human SF268 cells after 48 hrs by SRB assay; conditions: SF-268, 48 h
# DU-145 = experiment: Growth inhibition of human DU145 cells after 48 hrs by SRB assay; conditions: DU-145, 48 h
# BXPC-3 = experiment: Growth inhibition of human BxPC3 cells after 48 hrs by SRB assay; conditions: BXPC-3, 48 h
# NCI-H460 = experiment: Growth inhibition of human NCI-H460 cells after 48 hrs by SRB assay; conditions: NCI-H460, 48 h
SMILES,GI50 (MCF7) [nM],GI50 (DU-145) [nM],GI50 (BXPC-3) [nM],GI50 (NCI-H460) [nM],GI50 (KM-20L2) [nM],GI50 (SF-268) [nM]
CC[C@H](C)[C@@H]([C@@H](CC(=O)N1CCC[C@H]1[C@H](OC)[C@@H](C)C(=O)N[C@@H](Cc1ccccc1)c1nccs1)OC)N(C)C(=O)[C@@H](NC(=O)[C@H](C(C)C)N(C)C)C(C)C [DOLASTATIN-10],0.005,0.007,0.051,0.229,0.01,0.006
CC[C@H](C)[C@@H]([C@@H](CC(=O)N1CCC[C@H]1[C@H](OC)[C@@H](C)C(=O)NCCc1cccc2ncccc12)OC)N(C)C(=O)[C@@H](NC(=O)[C@H](C(C)C)N(C)C(=O)OCc1ccc(NC(=O)[C@H](CCCNC(N)=O)NC(=O)[C@@H](NC(=O)CCCCCN2C(=O)C=CC2=O)C(C)C)cc1)C(C)C ({Hexanoyl(6-maleimido)}-V[Cit][PABC][NMeV]V[Dil][Dolaproine]-X2),5.23,4.49,299,247,11.2,2.99
CC[C@H](C)[C@@H]([C@@H](CC(=O)N1CCC[C@H]1[C@H](OC)[C@@H](C)C(=O)NCCc1ccnc2ccccc12)OC)N(C)C(=O)[C@@H](NC(=O)[C@H](C(C)C)N(C)C(=O)OCc1ccc(NC(=O)[C@H](CCCNC(N)=O)NC(=O)[C@@H](NC(=O)CCCCCN2C(=O)C=CC2=O)C(C)C)cc1)C(C)C ({Hexanoyl(6-maleimido)}-V[Cit][PABC][NMeV]V[Dil][Dolaproine]-X3),30.7,31.4,1570,2620,38.9,29.9
CC[C@H](C)[C@@H]([C@@H](CC(=O)N1CCC[C@H]1[C@H](OC)[C@@H](C)C(=O)NCCc1cccc2cccnc12)OC)N(C)C(=O)[C@@H](NC(=O)[C@H](C(C)C)N(C)C(=O)OCc1ccc(NC(=O)[C@H](CCCNC(N)=O)NC(=O)[C@@H](NC(=O)CCCCCN2C(=O)C=CC2=O)C(C)C)cc1)C(C)C ({Hexanoyl(6-maleimido)}-V[Cit][PABC][NMeV]V[Dil][Dolaproine]-X1),15,5.98,449,449,23.9,3.52

# More lines, main results first:
GI50 (MCF7) [nM],GI50 (DU-145) [nM],GI50 (BXPC-3) [nM],GI50 (NCI-H460) [nM],SMILES,GI50 (KM-20L2) [nM],GI50 (SF-268) [nM]
0.149,0.135,67.7,67.7,CC[C@H](C)[C@@H]([C@@H](CC(=O)N1CCC[C@H]1[C@H](OC)[C@@H](C)C(=O)NCCc1ccnc2ccccc12)OC)N(C)C(=O)[C@@H](NC(=O)[C@@H](NC)C(C)C)C(C)C (H-[NMeV]V[Dil][Dolaproine]-X3),0.596,0.176
0.298,0.812,27.1,37.9,CC[C@H](C)[C@@H]([C@@H](CC(=O)N1CCC[C@H]1[C@H](OC)[C@@H](C)C(=O)NCCc1cccc2ncccc12)OC)N(C)C(=O)[C@@H](NC(=O)[C@@H](NC)C(C)C)C(C)C (H-[NMeV]V[Dil][Dolaproine]-X2),0.582,0.311
0.06,0.07,11.5,14.9,CC[C@H](C)[C@@H]([C@@H](CC(=O)N1CCC[C@H]1[C@H](OC)[C@@H](C)C(=O)NCCc1cccc2cccnc12)OC)N(C)C(=O)[C@@H](NC(=O)[C@@H](NC)C(C)C)C(C)C (H-[NMeV]V[Dil][Dolaproine]-X1),0.203,0.06
4.06,12.2,81.2,392,CC[C@H](C)[C@@H]([C@@H](CC(=O)N1CCC[C@H]1[C@H](OC)[C@@H](C)C(=O)NCCc1ccc2ccccc2n1)OC)N(C)C(=O)[C@@H](NC(=O)[C@@H](NC)C(C)C)C(C)C (H-[NMeV]V[Dil][Dolaproine]-X4),3.24,1.22
